We go through 3 compounds from patent US20080199422A1, “Method for the Treatment of Myelodysplastic Syndromes Using 1-Oxo-2-(2,6-Dioxopiperidin-3-Yl-)-4-Methylisoindoline” (CELGENE CORPORATION, priority 2004, published 2008).

Usually IC50 stands for the concentration that gives 50% inhibition.

Read-outs that look alike come from different tables or passages of the source.

The subject of data set [1] is MDS patients. The settings on record: cited from earlier work.
The subject of data set [2] is TNF-α production. The conditions noted are these: human PBMC, cited from earlier work; for IC50: LPS, read-out: IC50 for inhibiting production of TNF-α following LPS-stimulation of PBMC.
Data set [3] deals with MDS patients. In words: Clinical study in MDS patients with transfusion-dependence or symptomatic anemia. It is filed as in vivo, human. The method, then:
Clinical studies were performed for the remitting potential of 3-(4-amino-1-oxo-1,3-dihydro-isoindol-2-yl)-piperidine-2,6-dione in MDS patients with red blood cell transfusion-dependence (>4 units/8 weeks) or symptomatic anemia (Hgb<10 g/dl). Patients received continuous treatment with 3-(4-amino-1-oxo-1,3-dihydro-isoindol-2-yl)-piperidine-2,6-dione at a oral dose of 25 mg daily. Responses were assessed according to IWG criteria after 16 weeks of treatments. Among 15 patients receiving the treatments, 11 patients were evaluable for toxicity, nine patients were evaluable for response (>8 wks therapy), and three patients discontinued the therapy prematurely (<2 weeks) due to cholecystitis, autoimmune hemolytic anemia, or patient refusal. Median age of the patients was 78 years ranging from 51 to 82 years. FAB types of the MDS patients include RA [4 patients], RARS [4 patients], RABB [6 patients], and RAEB-T [1 patient] with corresponding IPSS categories of Low/Int-1 in 11 patients and Int-2/High in four patients. Myelosuppression, which was characterized by higher than grade 3 common toxicity criteria or 50% decrease in leukocyte and platelet counts [9 patients], and grade 3 fatigue [1 patient], necessitated dose reduction to 10 mg in the initial ten patients. All subsequent patients initiated oral administrations with 10 mg daily. Grade 1, 2 drug-related adverse effects were limited to the 25 mg dose and included pruritus or itchy scalp [6 patients] and myalgia [1 patient]. Six (66%) of nine evaluable patients experienced hematologic benefit (dual lineage, 1 patient), including 6/7 (86%) patients with IPSS Low/Int-1. Hematologic responses included RBC transfusion-independence [4 patients], decrease in RBC transfusions of more than 50% [1 patient], increase in Hgb of more than 1.5 g [1 patient], and one minor platelet response (increase of more than 30,000/μL ). Among five patients evaluable for cytogenetic response, three patients achieved either a complete or partial (decrease in abnormal metaphases of more than 50%) remission. […] Correlation with changes in apoptotic index, angiogenic features (cellular/plasma VEGF, micro vessel density), cytokine generation, and proliferative fraction (Ki67) are in progress. […] Clinical benefit appears greatest in patients with low/intermediate-1 disease or the 5q-syndrome, associated with resolution of cytology dysplasia.

In data set [4] the test system is MDS patients. Nature of the data set: Expanded clinical study, additional 16 MDS patients. In kind it is in vivo, human. The text has this:
The clinical study was expanded with additional 16 MDS patients for at least eight weeks. According to the IPSS, 13 of these patients were categorized as low- or intermediate-1-risk patients and three patients were grouped as intermediate-2- or high-risk patients. According to the FAB classification, there were 11 patients with refractory anemia (RA) or RA with ringed sideroblasts (RARS), and five patients with RA with excess blasts (RAEB), RAEB in transformation (RAEB-T). The starting dose of 3-(4-amino-1-oxo-1,3-dihydro-isoindol-2-yl)-piperidine-2,6-dione was 25 mg daily for the first 13 patients and 10 mg daily for the remaining three patients. All patients receiving the starting dose of 25 mg required dose reduction by the completion of eight weeks therapy. Among these 16 patients who completed at least 8 weeks of monitoring, nine patients achieved an erythroid response as assessed by the International MDS Working Group Criteria. The erythroid responses consisted of transfusion independence in seven previously transfusion-dependent patients, a >2 g/dL rise in blood hemoglobin concentration in one patient in with transfusion-independent anemia, and a >50% decrease in RBC transfusion requirement in one transfusion-dependent patient. […] In addition, complete cytogenetic responses developed in five in eight patients with abnormal karyotypes at baseline. These five patients with complete cytogenetic responses all had the Del5q3 1-33 abnormality, which has been discovered to be a good prognostic factor for MDS. Indeed, all five patients who enrolled in this study with 5q-syndrome achieved a complete cytogenetic response and a major erythroid response. The study also indicated an association of this therapy with an increased apoptotic index for myelodysplastic progenitors and recovery of normal hematopoietic progenitor cells.

Data set [5] concerns AML cells. In words: Mitogenic response to VEGF in AML cells. It is filed as cell-based. The settings on record: by extinguishing ligand-induced Akt-phosphorylation. The text has this: (§1) The pharmacological effects of 3-(4amino-1-oxo-1,3-dihydro-isoindol-2-yl)-piperidine-2,6-dione derive from its action as an inhibitor of cellular response to receptor-initiated trophic signals (e.g., IGF-1, VEGF, cyclooxygenase-2), and other activities. As a result, 3-(4-amino-1-oxo-1,3-dihydro-isoindol-2-yl)-piperidine-2,6-dione suppresses the generation of inflammatory cytokines, down-regulates adhesion molecules and apoptosis inhibitory proteins (e.g., cFLIP, cIAP), promotes sensitivity to death-receptor initiated programmed cell death, and suppresses angiogenic response.

In data set [6] the test system is TNF-α production. The conditions noted are these: cited from earlier work.
For data set [7], the system named is MDS bone marrow progenitor formation. Nature of the data set: MDS vs normal bone marrow progenitor formation in pre-clinical models. It is filed as cell-based.
Description: as §1

The mark [8] stands for this setting: 25 mg daily, initial ten patients, necessitated dose reduction to 10 mg.

In the case of “recombinant human EPO: recombinant human erythropoietin (EPO), hematopoietic growth factor”, the “patients with sustained improvement in hemoglobin or decrease in transfusion requirement” value in data set [1] is given as “less than 25%”.

With `O=C1CCC(N2C(=O)c3ccccc3C2=O)C(=O)N1` (racemic) [Thalidomide, 2-(2,6-dioxo-3-piperidinyl)-1H-isoindole-1,3(2H)-dione, reference compound], in data set [2], the IC50 was about 194 µM and the “IC50 for inhibiting production of TNF-α following LPS-stimulation of PBMC” value is about 50.2 µg/mL.

In the case of `Nc1cccc2c1CN(C1CCC(=O)NC1=O)C2=O` (stereo not drawn) [3-(4-amino-1-oxo-1,3-dihydro-isoindol-2-yl)-piperidine-2,6-dione], the tolerability result in data set [3] (10 mg continuous oral daily dose) was “well-tolerated with minimal myelosuppression”. Also, in data set [3] (setting [8]), the “grade 3 fatigue” value is recorded as 1 patient; the “myelosuppression (higher than grade 3 common toxicity criteria or 50% decrease in leukocyte and platelet counts)” value is 9 patients. In data set [3] (25 mg dose), the “Grade 1, 2 drug-related myalgia” value amounted to 1 patient and the “Grade 1, 2 drug-related pruritus or itchy scalp” value is listed as 6 patients. In addition, the “patients with hematologic benefit, IPSS Low/Int-1” value in data set [3] (6/7 patients with IPSS Low/Int-1) is 86%. In addition, the “complete or partial cytogenetic remission (decrease in abnormal metaphases of more than 50%)” value in data set [3] (among five patients evaluable for cytogenetic response) was “three”. For the same compound, in data set [3] (of nine evaluable patients), the RBC transfusion-independence is on record as 4 patients, the “decrease in RBC transfusions of more than 50%” value is reported as 1 patient, the “increase in Hgb of more than 1.5 g” value is recorded as 1 patient and the “minor platelet response (increase of more than 30,000/μL)” value was “one”. Moreover, in data set [3] (patients with low/intermediate-1 risk MDS), the “erythropoietic and cytogenetic remitting activity” value is “remarkable erythropoietic and cytogenetic remitting activity”. In data set [3] (responders), the “normalization of blast percentage” value came out at 1 patient. The “patients with hematologic benefit” value in data set [3] (six of nine evaluable patients, oral 25 mg daily, reduced to 10 mg, IWG criteria) stood at 66%. In data set [2], the IC50 is about 0.1 µM and the “IC50 for inhibiting production of TNF-α following LPS-stimulation of PBMC” value is about 0.0259 µg/mL. Besides, the “erythroid response (International MDS Working Group Criteria)” value in data set [4] (among 16 patients, at least 8 weeks, start 25 mg or 10 mg daily) is given as “nine”. The complete cytogenetic responses result in data set [4] (in eight patients with abnormal karyotypes at baseline) is “five”. In data set [4] (of 16 patients), the major erythroid response result is given as “eight”, the minor erythroid response entry is recorded as “one” and the minor platelet response result is “One”. In data set [4] (patients enrolled with 5q-syndrome), the “complete cytogenetic response and major erythroid response in 5q-syndrome” value is “all five”. The transfusion independence result in data set [4] (previously transfusion-dependent patients) is “seven”. Besides, in data set [4] (starting dose of 25 mg (first 13 patients)), the “patients requiring dose reduction by completion of eight weeks therapy” value was “All patients”. Also, in data set [4] (transfusion-dependent patient), the “>50% decrease in RBC transfusion requirement” value is on record as “one”. Moreover, the “>2 g/dL rise in blood hemoglobin concentration” value in data set [4] (transfusion-independent anemia) is “one”. In data set [5], the “mitogenic response to VEGF” value was “abrogates mitogenic response to VEGF”. The “IC50 for inhibiting production of TNF-α following LPS-stimulation of human whole blood” value in data set [6] was about 0.1036 µg/mL. Besides, the IC50 in data set [6] (human whole blood, LPS, read-out: IC50 for inhibiting production of TNF-α following LPS-stimulation of human whole blood) was about 0.48 µM. Further, in data set [7], the “MDS vs normal bone marrow progenitor formation” value was “selectively suppresses”.
